Measured values reported in ChEMBL document CHEMBL1127402, “Orally active non-peptide fibrinogen receptor (GpIIb/IIIa) antagonists: identification of 4-[4-[4-(aminoiminomethyl)phenyl]-1-piperazinyl]-1-piperidineacetic acid as a long-acting, broad-spectrum antithrombotic agent” (J Med Chem, 1994).

Organism: Homo sapiens
Test: Inhibition of 10 uM ADP induced aggregation in human gel filtered platelets in the presence fibrinogen and aspirin.
Assay type: functional

| IC50 | Compound |
| --- | --- |
| 31 nM | N=C(N)c1ccc(-c2ccc(N3CC[N+](CC(=O)O)(Cc4ccccc4)CC3)cc2)cc1 |
| 54000 nM | CCN(CC)CCO[C@H]1CC[C@H]([C@H]2CC[C@](O)(CC(=O)O)CC2)CC1 |
| 37 nM | N=C(N)c1ccc(N2CCN(C3CCN(CC(=O)O)CC3)CC2)cc1 |
| 210 nM | N/C(=N\CC(F)(F)F)c1ccc(-c2ccc(C3=CCC(O)(CC(=O)O)CC3)cc2)cc1 (centres undefined) |
